{"source": "ChEMBL document CHEMBL4376854", "about": "“Investigation of the Adrenergic and Opioid Binding Affinities, Metabolic Stability, Plasma Protein Binding Properties, and Functional Effects of Selected Indole-Based Kratom Alkaloids” (J Med Chem, 2020)", "key": {"[1]": {"molecular_target": "T1, Alpha-1A adrenergic receptor (Homo sapiens, UniProt P35348)", "T1 sequence (P35348 whole entry)": "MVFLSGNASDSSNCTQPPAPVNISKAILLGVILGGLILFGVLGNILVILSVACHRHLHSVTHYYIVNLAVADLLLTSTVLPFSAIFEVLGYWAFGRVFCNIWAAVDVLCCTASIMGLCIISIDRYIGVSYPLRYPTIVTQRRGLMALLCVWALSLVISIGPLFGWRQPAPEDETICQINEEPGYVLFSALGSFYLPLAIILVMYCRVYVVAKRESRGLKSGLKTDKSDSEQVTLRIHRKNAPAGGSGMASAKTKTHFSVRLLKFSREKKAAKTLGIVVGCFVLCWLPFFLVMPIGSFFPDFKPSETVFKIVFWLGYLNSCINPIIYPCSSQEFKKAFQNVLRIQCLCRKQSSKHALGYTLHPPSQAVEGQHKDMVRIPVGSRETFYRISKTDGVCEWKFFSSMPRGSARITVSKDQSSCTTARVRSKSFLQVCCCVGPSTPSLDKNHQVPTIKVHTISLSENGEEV", "assay": "Displacement of [3H]prazosin from human recombinant adrenergic alpha-1A receptor expressed in CHO cell membranes incubated for 60 mins"}, "[2]": {"molecular_target": "T2, Alpha-1B adrenergic receptor (Homo sapiens, UniProt P35368)", "T2 sequence (P35368 whole entry)": "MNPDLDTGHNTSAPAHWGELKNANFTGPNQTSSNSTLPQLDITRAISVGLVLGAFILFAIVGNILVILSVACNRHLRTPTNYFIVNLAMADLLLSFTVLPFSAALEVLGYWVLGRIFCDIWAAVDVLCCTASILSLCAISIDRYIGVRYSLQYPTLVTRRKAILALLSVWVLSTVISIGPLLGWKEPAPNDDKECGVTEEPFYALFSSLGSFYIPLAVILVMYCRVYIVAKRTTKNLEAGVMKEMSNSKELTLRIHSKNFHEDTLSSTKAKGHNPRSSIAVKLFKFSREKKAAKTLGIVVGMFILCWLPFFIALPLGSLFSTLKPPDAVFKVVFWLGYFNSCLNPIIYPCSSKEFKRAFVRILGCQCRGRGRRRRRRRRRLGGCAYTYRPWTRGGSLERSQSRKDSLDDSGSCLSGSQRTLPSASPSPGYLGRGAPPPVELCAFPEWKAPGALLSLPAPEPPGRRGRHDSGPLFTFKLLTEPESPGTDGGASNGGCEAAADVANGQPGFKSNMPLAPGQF", "assay": "Displacement of [3H]prazosin from human recombinant adrenergic alpha-1B receptor expressed in CHO cell membranes incubated for 60 mins"}, "[3]": {"molecular_target": "T3, Alpha-1A adrenergic receptor (Homo sapiens) (UniProt P35348)", "T3 sequence (whole entry)": "T1 sequence (P35348 whole entry)", "assay": "Partial agonist activity at human recombinant adrenergic alpha-1A receptor expressed in CHO cells assessed as stimulation of intracellular calcium levels incubated at room temperature by fluorimetry", "assay_type": "functional, cell-based"}, "[4]": {"molecular_target": "Nociceptin receptor (Homo sapiens) (UniProt P41146)", "sequence (P41146 whole entry)": "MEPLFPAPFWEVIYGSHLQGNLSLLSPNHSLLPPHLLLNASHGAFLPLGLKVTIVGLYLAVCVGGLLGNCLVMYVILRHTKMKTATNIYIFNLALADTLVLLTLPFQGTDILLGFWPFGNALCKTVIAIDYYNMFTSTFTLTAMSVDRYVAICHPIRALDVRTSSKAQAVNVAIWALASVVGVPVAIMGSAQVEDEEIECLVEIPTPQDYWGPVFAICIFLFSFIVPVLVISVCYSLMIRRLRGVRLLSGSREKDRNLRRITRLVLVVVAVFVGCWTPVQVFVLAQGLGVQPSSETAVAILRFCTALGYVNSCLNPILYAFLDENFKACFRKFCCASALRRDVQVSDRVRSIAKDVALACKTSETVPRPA", "details": "100 nM"}, "[5]": {"molecular_target": "T4, Alpha-2A adrenergic receptor (Homo sapiens, UniProt P08913)", "T4 sequence (P08913 whole entry)": "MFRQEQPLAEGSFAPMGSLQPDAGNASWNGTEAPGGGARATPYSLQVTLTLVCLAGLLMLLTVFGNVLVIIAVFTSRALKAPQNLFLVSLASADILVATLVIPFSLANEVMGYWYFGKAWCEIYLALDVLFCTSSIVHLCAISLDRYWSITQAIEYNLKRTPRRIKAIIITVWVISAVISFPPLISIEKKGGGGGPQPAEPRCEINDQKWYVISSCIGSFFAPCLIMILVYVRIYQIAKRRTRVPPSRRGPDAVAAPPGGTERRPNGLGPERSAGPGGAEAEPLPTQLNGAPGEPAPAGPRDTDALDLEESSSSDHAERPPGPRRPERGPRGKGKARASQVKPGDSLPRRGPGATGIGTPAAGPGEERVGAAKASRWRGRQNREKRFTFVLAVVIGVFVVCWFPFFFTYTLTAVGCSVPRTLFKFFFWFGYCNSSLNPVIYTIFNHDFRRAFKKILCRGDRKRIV", "assay": "biochemical"}, "[6]": {"molecular_target": "T5, Alpha-2C adrenergic receptor (Homo sapiens, UniProt P18825)", "T5 sequence (P18825 whole entry)": "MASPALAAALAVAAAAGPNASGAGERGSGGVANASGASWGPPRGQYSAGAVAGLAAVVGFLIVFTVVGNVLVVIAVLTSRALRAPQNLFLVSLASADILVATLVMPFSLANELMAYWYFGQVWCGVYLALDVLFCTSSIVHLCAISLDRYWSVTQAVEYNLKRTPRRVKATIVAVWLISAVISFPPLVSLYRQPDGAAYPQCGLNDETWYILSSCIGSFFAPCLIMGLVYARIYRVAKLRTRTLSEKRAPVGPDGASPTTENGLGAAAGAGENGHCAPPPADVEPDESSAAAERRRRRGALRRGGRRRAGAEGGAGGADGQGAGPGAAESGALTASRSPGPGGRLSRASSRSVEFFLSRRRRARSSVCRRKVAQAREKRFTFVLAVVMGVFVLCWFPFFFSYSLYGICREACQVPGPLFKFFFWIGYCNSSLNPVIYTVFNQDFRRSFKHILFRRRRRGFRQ", "assay": "biochemical"}}, "note": "pKi: −log10 of the molar value. Calls of active or inactive are those of the source. The calls are words filed in the database; no cut-off is given here."}
{"smiles": "CC[C@@H]1CN2CCc3c([nH]c4cccc(OC)c34)[C@@H]2C[C@@H]1/C(=C\\OC)C(=O)OC", "values": [{"measurement": "pKi", "setting": "[1]", "result": 5.87}, {"measurement": "pKi", "setting": "[2]", "result": 5.32}, {"measurement": "Activity", "setting": "[3]", "result": "Active"}, {"measurement": "inhibition", "setting": "[4]", "result": 4.3, "unit": "%"}, {"measurement": "pKi", "setting": "[5]", "result": 5.33}, {"measurement": "pKi", "setting": "[6]", "result": 5.63}]}
